In US7220756B2, “N-sulfonylheterocyclopyrrolyl-alkylamine compounds as 5-hydroxytryptamine-6 ligands” (Wyeth, priority 2003, dated 2007):

Each compound was assayed against T1, human cloned 5-HT6 receptors (Homo sapiens, UniProt P50406) (assay: 5-HT6 binding affinity, [3H]-LSD displacement). Settings: membranes of Hela cells expressing human cloned 5-HT6 receptors; [3H]-LSD 3.0 nM; 120 min, room temperature; read-out: 5-HT6 Binding Ki.
T1 construct: expressed in transfected cells; host or cells: HeLa cells
Experimental: The affinity of test compounds for the serotonin 5-HT6 receptor is evaluated in the following manner. Cultured Hela cells expressing human cloned 5-HT6 receptors are harvested and centrifuged at low speed (1,000×g) for 10.0 min to remove the culture media. The harvested cells are suspended in half volume of fresh physiological phosphate buffered saline solution and recentrifuged at the same speed. This operation is repeated. The collected cells are then homogenized in ten volumes of 50 mM Tris.HCl (pH 7.4) and 0.5 mM EDTA. The homogenate is centrifuged at 40,000×g for 30.0 min and the precipitate is collected. The obtained pellet is resuspended in 10 volumes of Tris.HCl buffer and recentrifuged at the same speed. The final pellet is suspended in a small volume of Tris.HCl buffer and the tissue protein content is determined in aliquots of 10–25 μl volumes. Bovine Serum Albumin is used as the standard in the protein determination according to the method described in Lowry et al., J. Biol. Chem., 193:265 (1951). The volume of the suspended cell membranes is adjusted to give a tissue protein concentration of 1.0 mg/ml of suspension. The prepared membrane suspension (10 times concentrated) is aliquoted in 1.0 ml volumes and stored at −70° C. until used in subsequent binding experiments.
The reaction is allowed to proceed in the dark for 120 min at room temperature, at which time, the bound ligand-receptor complex is filtered off on a 96 well unifilter with a Packard Filtermate® 196 Harvester. The bound complex caught on the filter disk is allowed to air dry and the radioactivity is measured in a Packard TopCount® equipped with six photomultiplier detectors, after the addition of 40.0 μl Microscint®−20 scintillant to each shallow well. The unifilter plate is heat-sealed and counted in a PackardTopCount® with a tritium efficiency of 31.0%.
Binding in the presence of varying concentrations of test compound is expressed as a percentage of specific binding in the absence of test compound. The results are plotted as log % bound versus log concentration of test compound. […] A linear regression line of data points is plotted, from which the IC50 value is determined and the Ki value is determined based upon the following equation: Ki=IC50/(1+L/KD) where L is the concentration of the radioactive ligand used and KD is the dissociation constant of the ligand for the receptor, both expressed in nM.

T1 sequence (P50406 whole entry): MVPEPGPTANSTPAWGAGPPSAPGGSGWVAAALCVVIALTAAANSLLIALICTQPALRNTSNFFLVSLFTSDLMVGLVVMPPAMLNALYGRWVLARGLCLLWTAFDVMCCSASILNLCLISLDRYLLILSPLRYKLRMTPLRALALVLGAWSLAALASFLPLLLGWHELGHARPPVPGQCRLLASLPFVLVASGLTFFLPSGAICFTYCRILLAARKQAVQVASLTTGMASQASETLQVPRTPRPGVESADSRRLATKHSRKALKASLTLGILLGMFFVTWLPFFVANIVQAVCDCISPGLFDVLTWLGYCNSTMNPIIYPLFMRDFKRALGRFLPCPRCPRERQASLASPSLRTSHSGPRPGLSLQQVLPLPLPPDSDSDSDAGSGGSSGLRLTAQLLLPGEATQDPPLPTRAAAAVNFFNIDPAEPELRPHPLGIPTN

Row | Compound | Ki [nM]
1 | COc1ccc(S(=O)(=O)n2cc(CCN(C)C)c3ccsc32)cc1 [Example 63, N,N-dimethyl-2-{[6-(4-methoxyphenyl)sulfonyl]-6H-thieno[2,3-b]pyrrol-4-yl}ethyl-amine] | 3.7 ± 0.1
2 | NCCc1cn(S(=O)(=O)c2ccc3ccccc3c2)c2ccsc12 [Example 66] | 9.2 ± 1
3 | COc1cccc(S(=O)(=O)n2cc(CCN)c3sccc32)c1 [Example 67, 2-{[4-(3-methoxyphenyl)sulfonyl]-4H-thieno[3,2-b]pyrrol-6-yl}ethylamine] | 2 ± 0.1
4 | Cc1c(S(=O)(=O)n2cc(CCN)c3sccc32)sc2ccc(Cl)cc12 [Example 68] | 25 ± 1
5 | CN(C)CCc1cn(S(=O)(=O)c2ccccc2)c2ccsc12 [Example 70] | 1.2 ± 0.1
6 | CN(C)CCc1cn(S(=O)(=O)c2cccc(C(F)(F)F)c2)c2ccsc12 [Example 71] | 3 ± 0.2
7 | CN(C)CCc1cn(S(=O)(=O)c2c(Cl)nc3sccn23)c2ccsc12 [Example 74] | 0.2
8 | COc1cccc(S(=O)(=O)n2cc(CCN(C)C)c3sccc32)c1 [Example 76] | 1.3 ± 0.1
9 | Cc1c(S(=O)(=O)n2cc(CCN(C)C)c3sccc32)sc2ccc(Cl)cc12 [Example 77] | 24.3 ± 1.5
10 | CN(C)CCc1cn(S(=O)(=O)c2ccccc2F)c2ccsc12 [Example 78] | 2.1 ± 0.1
11 | CN(C)CCc1cn(S(=O)(=O)c2cccc(F)c2)c2ccsc12 [Example 79] | 0.9
12 | N,N-dimethyl-2-[6-(2-naphthylsufonyl)-6H-thieno[2,3-b]pyrrol-4-yl]ethylamine [Example 43] | 2.5 ± 0.2
13 | N,N-dimethyl-2-{[6-(2,3-dichlorophenyl)sulfonyl]-6H-thieno[2,3-b]pyrrol-4-yl}ethyl-amine [Example 53] | 3 ± 0.1
14 | N,N-dimethyl-2-{[6-(2,6-dichloroimidazo[2,1-b]thiazol-5-yl)sulfonyl]-6H-thieno[2,3-b]pyrrol-4-yl}ethylamine [Example 51] | 6.8 ± 0.6
15 | N,N-dimethyl-2-{[6-(2-chloroimidazo[1,2-a]pyridin-3-yl)sulfonyl]-6H-thieno[2,3-b]pyrrol-4-yl}ethylamine [Example 50] | 2.1 ± 0.1
16 | N,N-dimethyl-2-{[6-(2-chlorophenyl)sulfonyl]-6H-thieno[2,3-b]pyrrol-4-yl}ethylamine [Example 48] | 5.5 ± 0.5
17 | N,N-dimethyl-2-{[6-(3-bromophenyl)sulfonyl]-6H-thieno[2,3-b]pyrrol-4-yl}-ethylamine [Example 54] | 1.7 ± 0.1
18 | N,N-dimethyl-2-{[6-(3-chloro-2-methylphenyl)sulfonyl]-6H-thieno[2,3-b]pyrrol-4-yl}-ethylamine [Example 64] | 5.9 ± 1.4
19 | N,N-dimethyl-2-{[6-(3-chlorophenyl)sulfonyl]-6H-thieno[2,3-b]pyrrol-4-yl}ethylamine [Example 40] | 1.6 ± 0.3
20 | N,N-dimethyl-2-{[6-(4,5-dichlorothien-2-yl)sulfonyl]-6H-thieno[2,3-b]pyrrol-4-yl]-ethyl]-amine [Example 57] | 4.9 ± 0.3
21 | N,N-dimethyl-2-{[6-(4-chlorophenyl)sulfonyl]-6H-thieno[2,3-b]pyrrol-4-yl}ethylamine [Example 52] | 2.6 ± 0.2
22 | N,N-dimethyl-2-{[6-(5-bromothien-2-yl)sulfonyl]-6H-thieno[2,3-b]pyrrol-4-ylethyl}-amine [Example 55] | 1.1 ± 0.1
23 | N,N-dimethyl-2-{[6-(5-chlorothien-2-yl)sulfonyl]-6H-thieno[2,3-b]pyrrol-4-yl]-ethyl}-amine [Example 41] | 1.3 ± 0.1
24 | N,N-dimethyl-2-{[6-(6-chloroimidazo[2,1-b][1,3]thiazol-5-yl)sulfonyl]-6H-thieno[2,3-b]pyrrol-4-yl}ethylamine [Example 42] | 0.9 ± 0.1
25 | N,N-dimethyl-2-{[6-(imidazo[2,1-b][1,3]thiazol-5-yl)sulfonyl]-6H-thieno[2,3-b]pyrrol-4-yl}-ethylamine [Example 49] | 1.1 ± 0.1
